Assay results as given in the supplement of paper PMC10307832.

How the values were obtained:
Experiment in all cases: relative viability (nuclei count vs DMSO), 5 days (fraction); higher = more cells survive
Bleomycin + Linsitinib = compound: CC1=C(N=C(N=C1N)[C@H](CC(=O)N)NC[C@@H](C(=O)N)N)C(=O)N[C@@H]([C@H](C2=CN=CN2)OC3C(C(C(C(O3)CO)O)O)OC4C(C(C(C(O4)CO)O)OC(=O)N)O)C(=O)N[C@H](C)[C@H]([C@H](C)C(=O)N[C@@H]([C@@H](C)O)C(=O)NCCC5=NC(=CS5)C6=NC(=CS6)C(=O)NCCC[S+](C)C)O [Bleomycin] + C[C@]1(O)C[C@@H](c2nc(-c3ccc4ccc(-c5ccccc5)nc4c3)c3c(N)nccn32)C1 [Linsitinib] (partner 1 µM); settings: main component drawn
Outline: (§1)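 Values are medians from duplicate plates. Each reflects relative viability, defined as the nuclei count of treated wells over that of vehicle wells. Lung cancer cell lines in 1536-well plates were pin-tool dosed one day after seeding with one drug alone or with a fixed anchor-drug dose plus five library-drug doses (not always all listed) in √10 steps, then fixed, stained and imaged at 4× after 5 days.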

Etoposide + Lapatinib = compound: COc1cc([C@@H]2c3cc4c(cc3[C@@H](O[C@@H]3O[C@@H]5CO[C@@H](C)O[C@H]5[C@H](O)[C@H]3O)[C@H]3COC(=O)[C@H]23)OCO4)cc(OC)c1O [Etoposide] + CS(=O)(=O)CCNCc1ccc(-c2ccc3ncnc(Nc4ccc(OCc5cccc(F)c5)c(Cl)c4)c3c2)o1 [Lapatinib] (partner 2 µM)
Outline: as §1

Bleomycin + Dasatinib = compound: CC1=C(N=C(N=C1N)[C@H](CC(=O)N)NC[C@@H](C(=O)N)N)C(=O)N[C@@H]([C@H](C2=CN=CN2)OC3C(C(C(C(O3)CO)O)O)OC4C(C(C(C(O4)CO)O)OC(=O)N)O)C(=O)N[C@H](C)[C@H]([C@H](C)C(=O)N[C@@H]([C@@H](C)O)C(=O)NCCC5=NC(=CS5)C6=NC(=CS6)C(=O)NCCC[S+](C)C)O [Bleomycin] + Cc1nc(Nc2ncc(C(=O)Nc3c(C)cccc3Cl)s2)cc(N2CCN(CCO)CC2)n1 [Dasatinib] (partner 0.075 µM); settings: main component drawn
Outline: as §1

Bleomycin + Pemetrexed = compound: CC1=C(N=C(N=C1N)[C@H](CC(=O)N)NC[C@@H](C(=O)N)N)C(=O)N[C@@H]([C@H](C2=CN=CN2)OC3C(C(C(C(O3)CO)O)O)OC4C(C(C(C(O4)CO)O)OC(=O)N)O)C(=O)N[C@H](C)[C@H]([C@H](C)C(=O)N[C@@H]([C@@H](C)O)C(=O)NCCC5=NC(=CS5)C6=NC(=CS6)C(=O)NCCC[S+](C)C)O [Bleomycin] + Nc1nc2[nH]cc(CCc3ccc(C(=O)N[C@@H](CCC(=O)O)C(=O)O)cc3)c2c(=O)[nH]1 [Pemetrexed] (partner 0.2 µM); settings: main component drawn
Outline: as §1

| Cell Line | relative viability (Bleomycin + Linsitinib; first compound 0.01 µM) | relative viability (Bleomycin + Linsitinib; first compound 0.03162 µM) | relative viability (Bleomycin + Linsitinib; first compound 0.1 µM) | relative viability (Bleomycin + Linsitinib; first compound 0.3162 µM) | relative viability (Bleomycin + Linsitinib; first compound 1 µM) | relative viability (Etoposide + Lapatinib; first compound 0.01 µM) | relative viability (Etoposide + Lapatinib; first compound 0.03162 µM) | relative viability (Etoposide + Lapatinib; first compound 0.1 µM) | relative viability (Etoposide + Lapatinib; first compound 0.3162 µM) | relative viability (Etoposide + Lapatinib; first compound 1 µM) | relative viability (Bleomycin + Dasatinib; first compound 0.01 µM) | relative viability (Bleomycin + Dasatinib; first compound 0.03162 µM) | relative viability (Bleomycin + Dasatinib; first compound 0.1 µM) | relative viability (Bleomycin + Dasatinib; first compound 0.3162 µM) | relative viability (Bleomycin + Dasatinib; first compound 1 µM) | relative viability (Bleomycin + Pemetrexed; first compound 0.01 µM) | relative viability (Bleomycin + Pemetrexed; first compound 0.03162 µM) | relative viability (Bleomycin + Pemetrexed; first compound 0.1 µM) | relative viability (Bleomycin + Pemetrexed; first compound 0.3162 µM) | relative viability (Bleomycin + Pemetrexed; first compound 1 µM) |
| --- | --- | --- | --- | --- | --- | --- | --- | --- | --- | --- | --- | --- | --- | --- | --- | --- | --- | --- | --- | --- |
| NCI-H1437 | 0.88 | 0.936 | 0.85 | 0.417 | 0.357 | 0.754 | 0.837 | 0.577 | 0.398 | 0.186 | 0.388 | 0.422 | 0.39 | 0.164 | 0.23 | 0.347 | 0.303 | 0.312 | 0.288 | 0.316 |
| NCI-H520 | 0.949 | 0.987 | 0.973 | 0.687 | 0.566 | 0.839 | 0.829 | 0.563 | 0.72 | 0.437 | 0.222 | 0.217 | 0.234 | 0.198 | 0.154 | 0.731 | 0.757 | 0.653 | 0.443 | 0.446 |
| NCI-H1666 | 0.677 | 0.543 | 0.486 | 0.335 | 0.269 | 0.616 | 0.692 | 0.371 | 0.305 | 0.28 | 0.658 | 0.521 | 0.565 | 0.374 | 0.317 | 0.72 | 0.659 | 0.804 | 0.578 | 0.673 |
| NCI-H1651 | 0.862 | 0.766 | 0.596 | 0.27 | 0.152 | 0.753 | 0.774 | 0.614 | 0.199 | 0.121 | 0.344 | 0.361 | 0.384 | 0.187 | 0.144 | 0.629 | 0.501 | 0.433 | 0.366 | 0.285 |
| NCI-H1755 | 0.97 | 0.992 | 0.981 | 0.767 | 0.618 | 1.06 | 1.13 | 1.02 | 0.988 | 0.71 | 0.409 | 0.433 | 0.407 | 0.454 | 0.29 | 0.529 | 0.442 | 0.426 | 0.381 | 0.415 |
| HARA | 0.944 | 1.02 | 0.887 | 0.457 | 0.467 | 0.591 | 0.811 | 0.675 | 0.56 | 0.134 | 0.297 | 0.322 | 0.251 | 0.186 | 0.104 | 0.219 | 0.228 | 0.237 | 0.169 | 0.217 |
| NCI-H647 | 0.649 | 0.487 | 0.321 | 0.13 | 0.102 | 1.05 | 0.984 | 0.797 | 0.185 | 0.0906 | 0.101 | 0.0923 | 0.0574 | 0.039 | 0.0343 | 0.198 | 0.153 | 0.196 | 0.0716 | 0.0627 |
| NCI-H1563 | 0.919 | 0.891 | 0.749 | 0.642 | 0.623 | 0.935 | 0.868 | 0.817 | 0.646 | 0.526 | 0.439 | 0.452 | 0.438 | 0.401 | 0.47 | 0.618 | 0.915 | 0.691 | 0.54 | 0.575 |
| NCI-H2347 | 0.848 | 0.846 | 0.831 | 0.484 | 0.464 | 1.13 | 0.835 | 0.547 | 0.406 | 0.422 | 0.258 | 0.295 | 0.266 | 0.169 | 0.23 | 0.401 | 0.427 | 0.435 | 0.383 | 0.423 |
| LCLC-97TM1 | 0.138 | 0.165 | 0.141 | 0.109 | 0.0963 |  | 1.23 | 0.465 | 0.23 | 0.124 | 0.553 | 0.576 | 0.619 | 0.208 | 0.123 | 0.169 | 0.165 | 0.189 | 0.141 | 0.0948 |
| EPLC-272H | 1.21 | 1.06 | 1.08 | 1.45 | 0.196 | 0.862 | 1.05 | 0.497 | 0.807 | 0.408 | 0.35 | 0.36 | 0.272 | 0.149 | 0.0954 | 0.294 | 0.198 | 0.146 | 0.121 | 0.131 |
| NCI-H1915 | 0.891 | 1.01 | 0.813 | 0.428 | 0.216 | 0.907 | 1.03 | 0.913 | 0.749 | 0.524 | 0.247 | 0.258 | 0.181 | 0.0914 | 0.0984 | 0.428 | 0.394 | 0.31 | 0.211 | 0.146 |
| NCI-H3122 | 1.05 | 1.03 | 1.01 | 0.744 | 0.457 | 1.09 | 0.998 | 0.97 | 0.91 | 0.451 | 0.833 | 0.999 | 0.749 | 0.366 | 0.206 | 0.214 | 0.205 | 0.201 | 0.165 | 0.166 |
| NCI-H1395 | 0.715 | 0.843 | 0.666 | 0.626 | 0.391 | 0.907 | 1.09 | 0.969 | 0.836 | 0.74 | 0.377 | 0.413 | 0.379 | 0.412 | 0.381 | 0.64 | 0.702 | 0.566 | 0.4 | 0.371 |
| NCI-H358 | 0.674 | 0.738 | 0.666 | 0.455 | 0.39 | 0.507 | 0.437 | 0.369 | 0.268 | 0.152 | 0.183 | 0.165 | 0.176 | 0.107 | 0.156 | 0.164 | 0.197 | 0.168 | 0.183 | 0.175 |
| PC-14 | 0.578 | 0.51 | 0.309 | 0.118 | 0.119 | 0.307 | 0.349 | 0.225 | 0.366 | 0.229 | 0.176 | 0.126 | 0.0817 | 0.0123 | 0.0118 | 0.113 | 0.118 | 0.103 | 0.0537 | 0.0242 |
| CAL-12T | 0.623 | 0.49 | 0.258 | 0.156 | 0.176 | 0.73 | 0.688 | 0.434 | 0.52 | 0.356 | 0.246 | 0.259 | 0.164 | 0.0878 | 0.12 | 0.729 | 0.482 | 0.31 | 0.186 | 0.156 |
